Measurements from patent US20130231472A1, “USE OF MOLECULAR MARKERS FOR THE PRECLINICAL PROFILING OF INHIBITORS OF ENZYMES HAVING HISTONE DEACETYLASE ACTIVITY” (priority 2002, published 2013).

How the values were obtained:
[1] = system: acute promyelocytic leukemia mice; experiment: Secondary acute promyelocytic leukemia mouse model: survival and splenomegaly; type: in vivo
Description: FIG. 1: (A) Secondary acute promyelocytic leukemias were induced in mice. In brief, primary leukemias were induced in mice by injecting PMURAR expressing bone marrow cells into the tail veins. Mice with overt leukemias were euthanized, and leukemic cells were harvested from the spleen. Leukemic cells were re-injected i.v. (1×10^7 cells/mouse) in non-irradiated, syngeneic recipient mice. The secondary recipient mice developed overt leukemia in about 2-3 weeks. Leukemic mice or healthy mice (Ctrl) were then treated with placebo (lanes 1, 3), or VPA (400 mg/kg every 12 hours) for two consecutive weeks. (B) Leukemic mice were treated with placebo (lower, Ctrl) or VPA (400 mg/kg every twelve hours, upper) for one week. At the end of the treatment, mice were sacrificed, and spleens were photographed.

leukemic spleens = experiment: Apoptosis in leukemic spleens after in vivo treatment (TUNEL assay); parameters: species or system mice; conditions: VPA 400 mg/kg every 12 hours, 48 hours; FIG. 3A
Experimental: (§1) FIG. 3: (A) Secondary acute promyelocytic leukemias were induced in mice as described above. Leukemic mice were then treated with placebo (Ctrl), or VPA (400 mg/kg every 12 hours). Mice were sacrificed 48 hours after beginning of treatments, and then leukemic spleens were fixed and either stained for histological examination (hematoxylin-eosyn, left panels), or analyzed for the presence of apoptotic cells (TUNEL assay, right panels). (B) Secondary leukemias were obtained as above. Mice were sacrificed when leukemic invasion of peripheral organs was >75% (spleen). Splenocytes from healthy mice (taken as control, left panel), or from leukemic mice (>75% blasts, right panel) were put in culture and then treated with VPA (1 mM) for 48 hours. At the end of the treatment, apoptosis was measured by propidium iodide staining. The sub-G1 area indicates the hypodiploid DNA peak corresponding to cells with fragmented DNA undergoing apoptosis.

[2] = system: splenocytes from leukemic mice (>75% blasts); experiment: Apoptosis of cultured leukemic splenocytes/APL blasts (propidium iodide staining); type: cell-based; conditions: VPA 1 mM, 48 hours, FIG. 3B
Experimental: as §1
FIG. 5: Leukemic blasts were obtained from spleens of secondary leukemic mice with a >75% invasion of tumor cells, as assessed by histological examination. Cells were put in culture and treated with VPA (1 mM) for 48 hours, in the absence or in the presence of the indicated TRAIL and/or caspase 8 inhibitors as indicated. At the end of the treatment, apoptosis was measured as described above.

TRAIL [3] = experiment: TRAIL expression in spleen after in vivo treatment (RNAse protection assay); parameters: species or system mice; conditions: VPA 400 mg/kg every 12 hours, FIG. 4A
TRAIL [4] = experiment: TRAIL expression in Calu-3 cells (quantitative PCR); type: cell-based, human; conditions: VPA 1 mM, FIG. 4B
Experimental: FIG. 4: (A) Secondary acute promyelocytic leukemias were induced in mice as described above. Leukemic mice or healthy mice (Ctrl) were then treated with placebo (lanes 1, 3), VPA (400 mg/kg every 12 hours), all-trans retinoic acid (a 21-day-release pellet containing 5 mg RA or placebo: lanes 8-9), and VPA plus retinoic acid (lanes 10-11). Mice were sacrificed 18 hours (lanes 4-5), or 36 hours after beginning of treatment (lanes 3, 6-7, 10-11): total RNAs were collected from the spleens (with a >75% invasion of leukemic blasts as assessed by Giemsa staining) and analyzed by RNAse protection assay to check for expression of TRAIL. Faf and GAPDH were used as controls, not affected by these treatments. (B) Calu-3 cells (a human, non-small cell lung cancer derived cell line) were treated with VPA (1 mM) for the indicated times. RNA was extracted and analyzed by quantitative PCR (Perkin-Elmer), using primers specific for TRAIL. GAPDH was used to normalize.

HDAC-2 [5] = experiment: HDAC-2 protein levels in NIH3T3 cells; type: cell-based, mouse
HDAC-1 = HDAC-1 protein levels (Westernblot, reference); type: cell-based; conditions: 1 mM VPA; FIG. 6A; in some experiments a transient induction
Experimental: (§2) FIG. 6: (A) F9 teratocarcinoma or HEK293T embryonic kidney cells were exposed for indicated times to 1 mM VPA. Protein levels of HDAC-2 and HDACs 1 or 3 for reference (HDAC8; N-CoR and Sin3 as data not shown) were determined by Westernblot analysis. […] (C) The effect of other HDAC inhibitors on the amount of HDAC-2 protein was determined by using TSA (100 nM) in a time course analysis in F9 cells (left panel). The HDAC inhibitors TSA (100 nM), trapoxin (TPX, 10 nM), butyrate (1.5 mM) or MS275 (5 μM) were tested at a single time of exposure in HEK293T cells (right panel).

HDAC-3 [6] = experiment: HDAC-3 protein levels (Westernblot, reference); type: cell-based; conditions: 1 mM VPA; FIG. 6A; in some experiments a transient induction
Experimental: as §2

HDAC-2 [7] = experiment: HDAC-2 pulse labeling and pulse-chase analysis in F9 cells; type: cell-based, murine; conditions: 1 mM VPA pretreatment 24 h
Experimental: (§3) FIG. 8: Synthesis and degradation rate of HDAC-2 were analyzed by pulse metabolic labeling with ^35S-methionine and pulse-chase analyses. ^35S-labelled HDAC-2 was detected by HDAC-2 specific immune precipitation followed by SDS-PAGE separation and autoradiography. (A) Pulse labeling for 1 h was performed in F9 and HEK293T cells which had been left untreated or were pretreated with 1 mM VPA for 24 h. (B) For pulse chase analysis cells were left untreated or pretreated for 24 h with 1 mM VPA and labeled with ^35S-methionine for an additional hour in the absence or presence of VPA. After removal of ^35S-methionine and addition of non-labeled methionine the elimination of radiolabeled HDAC-2 was followed over a period of 6 h. A pulse chase analysis was also performed in HEK293T cells without VPA pretreatment and addition of VPA (indicated by the (+) row) only at the time when the chase period was started. From HEK293T cell extracts also HDAC-3 was precipitated for reference.

HDAC-3 [8] = experiment: HDAC-3 pulse-chase analysis in HEK293T cells; type: cell-based, human; conditions: VPA pretreatment, FIG. 8B
Experimental: as §3

RLIM = RLIM protein levels in HEK293T cells (Westernblot); type: cell-based, human; conditions: 24 hours, VPA 0.5, 1.5 or 5 mM, TSA 30, 100 or 300 nM, FIG. 12
Experimental: FIG. 12 (A) RLIM protein levels were determined by Westernblot analysis after treatment of HEK293T cells for 24 hours with the HDAC inhibitors VPA (0.5, 1.5, or 5 mM), TSA (30, 100 or 300 nM) or a combination of VPA (1.5 mM) and TSA (100 nM). Actin protein levels are shown as a control for equal loading. (B) RLIM protein levels were determined by Westernblot analysis after treatment of HEK293T cells for 24 hours with the HDAC inhibitor TSA (100 nM), the proteasome inhibitor ALLN (2.5 μM) or a combination of both. Actin protein levels are shown as a control for equal loading.

## CCCC(CCC)C(=O)O [VPA, Valproic acid]
[1]; VPA 400 mg/kg every 12 hours for two consecutive weeks vs placebo, P<0.01, FIG. 1A
  survival of leukemic mice: extended survival of leukemic mice in a statistically significant way
[1]; VPA 400 mg/kg every twelve hours for one week vs placebo, FIG. 1B
  splenomegaly caused by blast infiltration: dramatic reduction in the splenomegaly
Leukemic spleens
  apoptotic cells in leukemic spleens (TUNEL): induces massive apoptosis within leukemic spleens
[2]
  apoptosis (propidium iodide, sub-G1): induces massive apoptosis of leukemic cells
TRAIL [3]; healthy mice
  TRAIL expression in spleen: did not cause induction of TRAIL expression
TRAIL [3]; leukemic mice, 18 or 36 hours
  TRAIL expression in spleen: induced TRAIL for the entire duration of treatment
TRAIL [4]
  TRAIL expression (quantitative PCR, normalized to GAPDH): strongly induced
HDAC-2 [5]
  HDAC-2 protein levels: reduced
HDAC-1
  HDAC-1 protein levels: not reduced
HDAC-3 [6]
  HDAC-3 protein levels: not reduced
HDAC-2 [7]; FIG. 8A
  HDAC-2 synthesis rate (35S-methionine pulse labeling): No substantial difference in HDAC-2 synthesis rate
HDAC-2 [7]; FIG. 8B
  half-life of HDAC-2 (pulse-chase): substantially decreased
HDAC-3 [8]
  degradation of HDAC-3 (pulse-chase): not affected
RLIM
  RLIM protein levels / degradation: without changing expression of the E3 ubiquitin ligase, RLIM
